Test results published in patent EP1046401A2, “Fatty acid derivative labelled with a radioactive transition metal” (NIHON MEDI-PHYSICS Co., Ltd., priority 1999, dated 2000).

What was measured:
liver slice [1] = experiment: Determination of the metabolites by in vitro test (liver slice, reversed phase HPLC); assay type: in vitro ADME, rat; conditions: 2-bromooctanoic acid added as inhibitor for the β-oxidation, liver slice incubation
Protocol: (§1) Under anesthetized, a rat was subjected to celiotomy and bleeded by perfusion via the portal vein with 20 mM of tris-HCl buffer solution (containing 100 mM of potassium chloride, 5 mM of magnesium chloride, 5 mM of potassium dihydrogen phosphate, pH 7.4) which is saturated with O2/CO2 (95/5) gas. Then, the liver was excised and pieces of liver slice having the thickness of 300 µm were prepared by using Stadie, Riggs type of slicer (manufactures by NATSUME SEISAKUSHO). After weighing, each pieces of liver slices were divided into two groups. […] The samples were analyzed by reversed phase HPLC under the same conditions employed in Determination of metabolites by in vivo test. Survival rate of the cells in the liver slice sample used in the test was determined by measuring the activity of lactic acid dehydrogenase (LDH) leaked into the culture medium. […]
In conducting the in vitro experiment for determining the metabolite more than 90% of the radioactivity in liver homogenate was extracted.
21.2 ± 3.0% of the whole radioactivity was eluted at the fraction retained at 17 minutes. […]

liver slice [2] = experiment: Survival of cells in the liver slice by lactic acid dehydrogenase (LDH) leaked into the medium; assay type: cell-based, rat; conditions: inhibition group (2-bromooctanoic acid 100 µM), at the termination point of experiments; no significant difference from control group
Protocol: as §1, with “groups. One is inhibiting group which was preincubated in 20mM tris-HCl buffer solution at 37°C for 5 minutes, in the presence of 2-bromooctanoic acid (the final concentration: 100 µM) as β-oxidation inhibitor, and another one is control group which was preincubated in 20 mM tris-HCl buffer solution at 37°C for 5 minutes, without the inhibitor. Next, [^99mTc]MAMA-HA (3.7 MBq) was added, and incubation was carried out under bubbling O2/CO2 (95/5) gas at 37°C for 60 minutes with shaking 60 times per minute.” for “groups.”

## CCCCCCC(Br)C(=O)O (centres unmarked) [2-bromooctanoic acid]
Liver slice [1]
  formation of [^99mTc]MAMA-BA from [^99mTc]MAMA-HA: inhibited completely
Liver slice [2]
  LDH activities: 3,285 ± 367 IU/L
